Reference: patent EP4606801A1, “FUSED HETEROCYCLIC COMPOUND AND USE THEREOF” (Chengdu Zenitar Biomedical Technology Co., Ltd., priority 2022, dated 2024)
Where “and” joins values, the source holds several entries; their conditions need not be identical. Equal entries are not always repeated. Where two headings read alike, the source gives them in different places.

How the values were obtained:
PARP5A = biological target: T1, PARP5A (Homo sapiens, UniProt O95271); test: Determination of PARP5A enzyme (histone-coated plate, Biotin-NAD+); format: biochemical
T1 construct: purchased BPS 80504
T1 sequence (O95271 1001-1327): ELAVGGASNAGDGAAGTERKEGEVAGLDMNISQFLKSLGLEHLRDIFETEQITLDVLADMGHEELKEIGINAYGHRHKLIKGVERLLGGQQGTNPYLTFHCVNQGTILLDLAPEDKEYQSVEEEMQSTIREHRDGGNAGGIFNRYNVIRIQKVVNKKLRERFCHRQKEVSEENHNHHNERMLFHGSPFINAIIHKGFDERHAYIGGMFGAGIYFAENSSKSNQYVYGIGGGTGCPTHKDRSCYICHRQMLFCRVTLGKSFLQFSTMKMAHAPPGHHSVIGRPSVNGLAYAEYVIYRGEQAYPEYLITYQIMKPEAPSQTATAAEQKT
Method: • 1.3.1 Preparation of buffer solution solution: PBST: 1x PBS, 0.05% Tween-20; blocking solution: 1x PBS, 0.05% Tween-20, 5% BSA; reaction buffer solution: 50 mM HEPES (pH 7.5), 0.002% Tween-20, 0.1% BSA, 100 mM NaCl, 2mM DTT. • 1.3.2 Coating: A 100 ng/mL Histone coating solution was prepared by using 1x PBS, 25 uL of the coating solution was transferred to a 384-well reaction plate, and the reaction plate was coated overnight at 4°C. • 1.3.3 Washing: After the coating was completed, the coating solution was discarded, and the reaction plate was washed with the PBST solution by means of transferring 50uL of the PBST solution to the 384-well reaction plate, letting it stand for 5 min, discarding the washing solution, refilling the reaction plate with the PBST solution, and repeating the washing process 3 times. Finally, the reaction plate was tapped dry and the next step of blocking was proceeded with. • 1.3.4 Blocking: 50 uL of the blocking solution was transferred to the 384-well reaction plate and set for 1 h. • 1.3.5 Washing: After the blocking was completed, the blocking solution was discarded, the reaction plate was washed 3 times with the PBST solution according to the method in Step 2, and the reaction plate was tapped dry. • 1.3.6 A 25/10× PARP5A solution was prepared, then 10 µL of the PARP5A solution was transferred to the 384-well reaction plate. For negative control wells, 10 µL of the reaction buffer solution instead was transferred, resulting in the final concentration of PARP5A of 10 nM. • 1.3.7 A 2,000x compound was prepared, 50 nL of the compound was transferred to with echo, 19.95 uL of the reaction buffer solution was added into the compound, mix well, and 5 uL of the mixed compound was transferred to the 384-well reaction plate. • 1.3.8 A 25/10x Biotin-NAD+ solution was prepared, 10uL of the Biotin-NAD+ solution was transferred to the 384-well reaction plate, resulting in a final Biotin-NAD+ concentration of 2uM, and incubated at room temperature for 60 min. • 1.3.9 Washing: After the reaction was completed, the reaction liquid was discarded. The reaction plate was washed 3 times with the PBST solution according to the method in Step 2, and the reaction plate was tapped dry. • 1.3.10 A Stre-HRP solution was prepared by means of diluting it with the blocking solution, 25uL of the Stre-HRP solution was transferred to the reaction plate, and incubated at room temperature for 1 h, resulting the final concentration of Stre-HRP of 0.1 µg/mL. • 1.3.11 Washing: The Stre-HRP solution was discarded, the reaction plate was washed 3 times with the PBST solution according to the method in Step 2, and the reaction plate was tapped dry. • 1.3.12 Color developing: Femto-ECL Substrate A, Femto-ECL Substrate B, and QuantaRed ADHP were mixed in a 50:50:1 ratio.

PARP2 = biological target: T2, PARP2 (Homo sapiens, UniProt Q9UGN5); test: Determination of PARP2 enzyme (histone-coated plate, Biotin-NAD+); format: biochemical; conditions: read-out: PARP-2 IC50
T2 construct: purchased BPS 80502
T2 sequence (Q9UGN5 whole entry): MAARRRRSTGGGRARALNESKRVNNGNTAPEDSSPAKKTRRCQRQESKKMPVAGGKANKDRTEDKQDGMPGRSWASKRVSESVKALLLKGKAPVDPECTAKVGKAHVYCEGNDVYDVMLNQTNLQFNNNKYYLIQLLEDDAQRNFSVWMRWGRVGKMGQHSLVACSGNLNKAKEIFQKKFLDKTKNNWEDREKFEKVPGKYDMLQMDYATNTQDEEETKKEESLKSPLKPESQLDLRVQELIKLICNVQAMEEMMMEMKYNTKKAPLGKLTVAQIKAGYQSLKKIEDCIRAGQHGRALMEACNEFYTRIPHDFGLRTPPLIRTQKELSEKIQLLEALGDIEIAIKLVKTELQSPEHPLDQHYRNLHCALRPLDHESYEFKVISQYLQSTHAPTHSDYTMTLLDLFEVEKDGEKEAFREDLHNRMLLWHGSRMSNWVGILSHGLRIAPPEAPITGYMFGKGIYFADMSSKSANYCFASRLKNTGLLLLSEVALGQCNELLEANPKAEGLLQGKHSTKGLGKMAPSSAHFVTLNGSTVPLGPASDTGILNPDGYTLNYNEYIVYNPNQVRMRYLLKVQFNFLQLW
Method: • 1.2.1 Preparation of buffer solution: PBST: 1x PBS, 0.05% Tween-20; blocking solution: 1x PBS, 0.05% Tween-20, 5% BSA; reaction buffer solution: 50 mM HEPES (pH 7.5), 0.002% Tween-20, 0.1% BSA, 100 mM NaCl, 2mM DTT. • 1.2.2 Coating: A 100 ng/mL Histone coating solution was prepared by using 1x PBS, 25 uL of the coating solution was transferred to a 384-well reaction plate, and the reaction plate was coated overnight at 4°C. • 1.2.3 Washing: After the coating was completed, the coating solution was discarded, and the reaction plate was washed with the PBST solution by means of transferring 50uL of the PBST solution to the 384-well reaction plate, letting it stand for 5 min, discarding the washing solution, refilling the reaction plate, and repeating the washing process 3 times. Finally, the reaction plate was tapped dry and the next step of blocking was proceeded with. • 1.2.4 Blocking: 50 uL of the blocking solution was transferred to the 384-well reaction plate and set for 1 h. • 1.2.5 Washing: After the blocking was completed, the blocking solution was discarded, the reaction plate was washed 3 times with the PBST solution according to the method in Step 2, and the reaction plate was tapped dry. • 1.2.6 A 25/10× PARP2 solution was prepared, then 10 µL of the PARP2 solution was transferred to the 384-well reaction plate.

breast cancer MDA-MB-436 = test: In-vivo pharmacodynamic study on subcutaneous xenograft tumor model of breast cancer MDA-MB-436; parameters: species or system NOD/SCID mice; conditions: 100 mg/kg orally once daily
Method: Strain: NOD/SCID; Grade: SPF; Source: Beijing Vitron River Bio-technology Co., Ltd.
The cells were washed 3 times with pre-cooled PBS, centrifuged at 300 g for 10 min, collected, re-suspended in PBS, and counted with a blood cell counting chamber, and the cell concentration was adjusted. After cell collection, the cell suspension was pre-cooled on ice. 100 µL of the cell suspension was administered via subcutaneous injection into the dorsal flank of the mice, and the grouped treatment was started when the tumor volume reached 200-300 mm^3.
General observation: Observation of animals: all live experimental animals to be observed; Observation time: twice a day; Observation items: including but not limited to general performance, behavioral status, eyes, mouth, nose and mouth, ears, hair, stool, urine, genitalia and other toxic symptoms; If abnormalities are observed, provide a detailed description.
Animal assay: all viable experimental animals scheduled for assay; Assay time: All animals were weighed before the modeling for test grouping. After modeling, the mice were weighed once every 2 days, and the weight change of the mice was recorded in real time. Effective criteria: tumor volume (TV), relative tumor volume (RTV) and relative tumor growth rate of subcutaneously implanted tumor model. […] The calculation formula of tumor volume (TV) was: TV (mm^3) = a×b2×0.5, where a and b were the long diameter and short diameter, respectively.
The evaluation index for anti-tumor activity was the relative tumor growth rate T/C (%), and the calculation formula was as follows: T/C(%) = TRTV/CRTV × 100%; [formula]
Where, TRTV is relative tumor volume of the treatment group; CRTV is relative tumor volume of the negative control group. Therapeutic evaluation criteria: T/C (%)> 60 is considered ineffective; T/C (%) ≤ 60, and P < 0.05 (through statistical analysis) is considered effective. Measurement of tumor weight and tumor inhibition rate (%): At the end of the treatment period, the animals were euthanize, tumor masses dissected and isolated, tumors weighed, and photographs took. The tumor inhibition rate (%) was calculated by the formula below: [formula]
All raw data within the facility were collected manually according to the experimental scheme and the relevant guidelines of the research institution, or gathered by using a data acquisition system. Manually collected data can be transcribed into software such as Excel for analysis and reporting. The data from each group were quantitative, and the experimental data for each group of animals in the tables were expressed as mean ± standard deviation (Mean ± SD). In the figures, the experimental data ware described as mean ± standard error of the mean (Mean ± SEM). Statistical analysis, including t-tests and survival analysis, was performed by using the software such as EXCEL and GraphPad Prism.
After 24 days of administration, the tumor-bearing mice were anesthetized and euthanized. The tumor tissues were dissected, weighed, and photographed, and the tumor inhibition rate was calculated.

[1] = Pharmacokinetic evaluation of compound in Balb/c mice; format: in vivo; conditions: 1 mg/kg, PO; for AUC(0-t) / Cmax / half-life: male, mouse, plasma
Method: Sample preparation: About 0.2 mg of the compound was dissolved in 10 µL DMSO, then a sodium chloride injection was added to make a 0.1 mg·mL^-1 solution of the compound for administration.
Three mice were administered the compound intravenously (IV) at a dose of 1 mg·kg^-1, and the other three were administered the compound orally (PO) at the same dose. […] The plasma concentration of the drug was quantitatively analyzed with the LC-MS/MS method, and pharmacokinetic parameters were calculated, including the […] (Cmax), area under the concentration-time curve (AUC(0-t)), half-life (T1/2), clearance (CL), volume of distribution at steady state (Vdss), and bioavailability (F).

[2] = tested on: BRCA wild-type DLD-1 cells; test: Anti-proliferative activity assay of cell (CCK8), DLD-1; format: cell-based; conditions: Homo sapiens; BRCA wild-type DLD-1 cells, 72 h + 96 h, CCK8; read-out: DLD-1 IC50
PARP1 = PARP1 (Homo sapiens, UniProt P09874); test: Determination of PARP1 enzyme (histone-coated plate, chemiluminescence); format: biochemical
Chain of PARP1 (P09874 whole entry): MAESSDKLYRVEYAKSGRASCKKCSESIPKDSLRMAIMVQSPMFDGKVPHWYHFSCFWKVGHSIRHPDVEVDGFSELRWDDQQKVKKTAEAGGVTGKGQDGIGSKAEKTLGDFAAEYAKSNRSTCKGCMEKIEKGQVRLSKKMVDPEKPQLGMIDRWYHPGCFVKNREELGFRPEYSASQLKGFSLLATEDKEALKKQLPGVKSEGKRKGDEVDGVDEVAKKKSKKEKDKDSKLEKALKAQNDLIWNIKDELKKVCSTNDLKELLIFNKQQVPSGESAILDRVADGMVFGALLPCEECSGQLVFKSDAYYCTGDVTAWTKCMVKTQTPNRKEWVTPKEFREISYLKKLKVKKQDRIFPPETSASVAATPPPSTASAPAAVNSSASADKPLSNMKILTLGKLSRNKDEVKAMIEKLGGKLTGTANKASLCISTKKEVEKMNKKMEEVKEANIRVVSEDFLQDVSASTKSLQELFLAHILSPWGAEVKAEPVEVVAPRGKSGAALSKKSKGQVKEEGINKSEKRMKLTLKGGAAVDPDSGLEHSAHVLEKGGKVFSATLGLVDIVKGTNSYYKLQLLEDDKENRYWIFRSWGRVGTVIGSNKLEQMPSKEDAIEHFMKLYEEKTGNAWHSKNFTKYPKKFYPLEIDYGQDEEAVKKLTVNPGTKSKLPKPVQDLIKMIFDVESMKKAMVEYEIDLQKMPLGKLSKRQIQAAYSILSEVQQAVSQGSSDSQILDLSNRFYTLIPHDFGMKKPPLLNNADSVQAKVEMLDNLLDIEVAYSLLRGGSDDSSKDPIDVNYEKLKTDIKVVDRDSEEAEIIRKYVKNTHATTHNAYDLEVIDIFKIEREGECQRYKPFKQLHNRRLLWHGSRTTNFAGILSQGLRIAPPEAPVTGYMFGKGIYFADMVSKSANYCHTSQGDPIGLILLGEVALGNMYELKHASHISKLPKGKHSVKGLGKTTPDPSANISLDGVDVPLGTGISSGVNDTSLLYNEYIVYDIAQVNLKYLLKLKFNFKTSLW

| SMILES | IC50 (PARP5A; read-out: PARP-5a IC50) | IC50 (PARP2) | Vdss [1] | AUC(0-t) [1] | Cmax [1] | half-life [1] | IC50 [2] | other results |
| --- | --- | --- | --- | --- | --- | --- | --- | --- |
| [2H]C([2H])([2H])NC(=O)c1ccc(C2=CCN(Cc3cnc4cc(C([2H])([2H])C([2H])([2H])[2H])c(=O)[nH]c4c3)CC2)cn1 [Compound 11, 1'-((7-(ethyl-d5)-6-oxo-5,6-dihydro-1,5-naphthyridin-3-yl)methyl)-N (methyl-d3)-1',2',3',6'-tet rahydro-[3,4'-bipyridine]-6-carboxamide] | > 1000 nM | > 1000 nM |  |  |  |  |  |  |
| O=C(c1cc(Cc2n[nH]c(=O)c3ccccc23)ccc1F)N1CCN(C(=O)C2CC2)CC1 [Olaparib, reference compound] |  |  |  |  |  |  |  | RTV (breast cancer MDA-MB-436; 24 days): 2.2; Tumor inhibition rate (%) (breast cancer MDA-MB-436; 24 days): 62.19%; Tumor volume T/C% (breast cancer MDA-MB-436; 24 days): 33.4%; Tumor weight (g) X±SD (breast cancer MDA-MB-436; 24 days): 0.82 ± 0.39 g; Body weight (g) X±SD End (breast cancer MDA-MB-436; End, 24 days): 21.7 ± 1.4 g; Tumor volume (mm^3) X±SD End (breast cancer MDA-MB-436; End, 24 days): 551.5±343.1 mm^3; Body weight (g) X±SD Start (breast cancer MDA-MB-436; Start): 21.9 ± 1.1 g; Tumor volume (mm^3) X±SD Start (breast cancer MDA-MB-436; Start): 250.7±70.0 mm^3 |
| [2H]C([2H])([2H])NC(=O)c1ccc(C2=CCN(Cc3ccc4nc(CC)c(=O)[nH]c4c3F)CC2)cn1 [Compound 4, 1'-((2-Ethyl-5-fluoro-3-oxo-3,4-dihydroquinoxalin-6-yl)methyl)-N-(methyl-d3)-1',2',3',6'-tetra hydro-[3,4'-bipyridine]-6-carboxamide] |  |  | 0.14 L/kg | 122000 ng·h/mL | 7370 ng/mL | 11.5 h | > 10000 nM | CL [1]: 0.17 mL/min/kg |
| [2H]C([2H])([2H])NC(=O)c1ccc(C2=CCN(Cc3cnc4cc(CC)c(=O)[nH]c4c3)CC2)c(C)n1 [Compound 8, 1'-((7-ethyl-6-oxo-5,6-dihydro-1,5-naphthyridin-3-yl)methyl)-2-methyl-N-(methyl-d3)-1',2',3', 6'-tetrahydro-[3,4'-bipyridine]-6-carboxamide] |  |  | 0.14 L/kg | 42300 ng·h/mL | 5010 ng/mL | 4.1 h |  |  |
| [2H]C([2H])([2H])C([2H])([2H])c1nc2ccc(CN3CC=C(c4ccc(C(=O)NC)nc4)CC3)c(F)c2[nH]c1=O [Compound 13, 1'-((2-(ethyl-d5)-5-fluoro-3-oxo-3,4-dihydroquinoxalin-6-yl)methyl)-N-methyl-1',2',3',6'-tetra hydro-[3,4'-bipyridine]-6-carboxamide] |  | > 1000 nM |  |  |  |  | > 10000 nM | IC50 (PARP5A): > 1000 nM; PARP-1 inhibition ratio (PARP1): 96.1% and 98.5% |
| [2H]C([2H])([2H])Cc1cc2ncc(CN3CC=C(c4ccc(C(=O)NC)nc4)CC3)cc2[nH]c1=O [Compound 16, 1'-((7-(ethyl-2,2,2-d3)-6-oxo-5,6-dihydro-1,5-naphthyridin-3-yl)methyl)-N-methyl-1',2',3',6'-t etrahydro-[3,4'-bipyridine]-6-carboxamide] | > 1000 nM | > 1000 nM |  |  |  |  |  |  |
| [2H]C([2H])([2H])NC(=O)c1ccc(C2=CCN(Cc3cnc4cc(CC)c(=O)[nH]c4c3)CC2)c(F)n1 [Compound 10, 1'-((7-ethyl-6-oxo-5,6-dihydro-1,5-naphthyridin-3-yl)methyl)-2-fluoro-N-(methyl-d3)-1',2',3', 6'-tetrahydro-[3,4'-bipyridine]-6-carboxamide] |  |  | 0.15 L/kg | 44600 ng·h/mL | 3840 ng/mL | 4.64 h | > 10000 nM |  |
| [2H]C([2H])([2H])C([2H])([2H])c1cc2ncc(CN3CC=C(c4ccc(C(=O)NC5CC5)nc4)CC3)cc2[nH]c1=O [Compound 12, N-cyclopropyl-1'-((7-(ethyl-d5)-6-oxo-5,6-dihydro-1,5-naphthyridin-3-yl)methyl)-1',2',3',6'-tet rahydro-[3,4'-bipyridine]-6-carboxamide] | > 1000 nM | > 1000 nM | 0.70 L/kg | 6950 ng·h/mL | 2290 ng/mL | 3.87 h | > 10000 nM | CL [1]: 2.5 mL/min/kg; PARP-1 inhibition ratio (PARP1): 99.8% and 99.9% |
| [2H]C([2H])([2H])C([2H])([2H])c1nc2ccc(CN3CC=C(c4ccc(C(=O)NC)nc4F)CC3)c(F)c2[nH]c1=O [Compound 14, 1'-((2-(ethyl-d5)-5-fluoro-3-oxo-3,4-dihydroquinoxalin-6-yl)methyl)-2-fluoro-N-methyl-1',2',3 '6'-tetrahydro-[3,4'-bipyridine]-6-carboxamide] | > 1000 nM | > 1000 nM |  |  |  |  | > 10000 nM | PARP-1 inhibition ratio (PARP1; 10 nM): 98.9%; PARP-1 inhibition ratio (PARP1; 100 nM): 99.1% |
